The values below come from the supplement of paper PMC10307832.

Common to all, as to test: relative viability (nuclei count vs DMSO), 5 days (fraction); higher = more cells survive
Compound in assay [1]: CC1=C(N=C(N=C1N)[C@H](CC(=O)N)NC[C@@H](C(=O)N)N)C(=O)N[C@@H]([C@H](C2=CN=CN2)OC3C(C(C(C(O3)CO)O)O)OC4C(C(C(C(O4)CO)O)OC(=O)N)O)C(=O)N[C@H](C)[C@H]([C@H](C)C(=O)N[C@@H]([C@@H](C)O)C(=O)NCCC5=NC(=CS5)C6=NC(=CS6)C(=O)NCCC[S+](C)C)O [Bleomycin] + CCNC(=O)c1noc(-c2cc(C(C)C)c(O)cc2O)c1-c1ccc(CN2CCOCC2)cc1 [Luminespib] (partner 0.01 µM)
To be noted: main component drawn. A digest of the protocol: (§1)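 Nuclei were stained with Hoechst during a one-step fixation (final 0.05% Triton X-100, 1% formaldehyde, 1 ug/ml Hoechst) carried out 5 days after dosing, then counted on 4× images. The cells, lung cancer lines in 1536-well plates, had been dosed by pin tool the day after seeding with one drug alone or a fixed anchor-drug dose plus five library-drug doses (not always all listed) in √10 steps. Relative viability is the nuclei count in treated wells divided by that in vehicle wells, and each value is the median of duplicate plates.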

Compound in assay [2]: COc1cc([C@@H]2c3cc4c(cc3[C@@H](O[C@@H]3O[C@@H]5CO[C@@H](C)O[C@H]5[C@H](O)[C@H]3O)[C@H]3COC(=O)[C@H]23)OCO4)cc(OC)c1O [Etoposide] + CS(=O)(=O)CCNCc1ccc(-c2ccc3ncnc(Nc4ccc(OCc5cccc(F)c5)c(Cl)c4)c3c2)o1 [Lapatinib] (partner 2 µM)
A digest of the protocol:
as §1

Compound in assay [3]: COc1cc([C@@H]2c3cc4c(cc3[C@@H](O[C@@H]3O[C@@H]5CO[C@@H](C)O[C@H]5[C@H](O)[C@H]3O)[C@H]3COC(=O)[C@H]23)OCO4)cc(OC)c1O [Etoposide] + CC(=O)Nc1cccc(-n2c(=O)n(C3CC3)c(=O)c3c(Nc4ccc(I)cc4F)n(C)c(=O)c(C)c32)c1 [Trametinib] (partner 0.02 µM)
A digest of the protocol:
as §1

Compound in assay [4]: COc1cc([C@@H]2c3cc4c(cc3[C@@H](O[C@@H]3O[C@@H]5CO[C@@H](C)O[C@H]5[C@H](O)[C@H]3O)[C@H]3COC(=O)[C@H]23)OCO4)cc(OC)c1O [Etoposide] + CCNC(=O)c1noc(-c2cc(C(C)C)c(O)cc2O)c1-c1ccc(CN2CCOCC2)cc1 [Luminespib] (partner 0.01 µM)
In outline:
as §1

Consider UMC-11, for which the relative viability in assay [1] (first compound 0.01 µM) was 0.914; in assay [1] (first compound 0.03162 µM), 1.05; in assay [1] (first compound 0.1 µM), 0.893; in assay [1] (first compound 0.3162 µM), 0.65; in assay [1] (first compound 1 µM), 0.539; in assay [2] (first compound 0.01 µM), 0.973. Moreover, the relative viability came out at 1.05 in assay [2] (first compound 0.03162 µM); 0.407 in assay [2] (first compound 0.1 µM); 0.46 in assay [2] (first compound 0.3162 µM); 0.239 in assay [2] (first compound 1 µM); 0.711 in assay [3] (first compound 0.01 µM); 0.711 in assay [3] (first compound 0.03162 µM). The relative viability in assay [3] (first compound 0.1 µM) stood at 0.352; in assay [3] (first compound 0.3162 µM), 0.258; in assay [3] (first compound 1 µM), 0.292; in assay [4] (first compound 0.01 µM) it was 1; in assay [4] (first compound 0.03162 µM), 1.09; in assay [4] (first compound 0.1 µM) it was 0.783. Also, the relative viability was 0.566 in assay [4] (first compound 0.3162 µM) and 0.279 in assay [4] (first compound 1 µM).
